Key:
[1] = spontaneous dephosphorylation of phosphoryloxytryptamines in phosphate buffers, one hour at 85 degrees Celsius, HPLC at 220 nanometers (Example 1)
[2] = cited from earlier work
[3] = cited from earlier work; remark: listed apart in the source
[4] = tested on: laccase enzyme; experiment: colorimetric assay with a syringaldazine substrate for residual laccase enzyme activity; assay type: biochemical, Psilocybe cubensis; settings: supernatants of the extracts
Excerpt: The denaturation of relevant laccase enzymes may be assessed, for example, by performing a colorimetric assay with a laccase enzyme substrate such as syringaldazine or 2,2′-azino-bis(3-ethylbenzothiazoline-6-sulfonate) (ABTS). Syringaldazine comprises an aromatic structure with pendant hydroxyl groups, which is chemically similar to the indole of a hydroxytryptamine, and ABTS comprises a benzothiazoline, which is chemically similar to the indole of tryptamines generally. Colorimetric assays performed with a syringaldazine or ABTS substrate therefore provide suitable methods to assess laccase activity that are relevant to this disclosure.
(§1) The molecular weights of the analytes are determined by electrospray ionization mass spectroscopy (ESI-MS) operating in positive ion mode. The supernatants are also used for a colorimetric assay with a para-nitrophenyl phosphate substrate to identify residual phosphatase enzyme activity and for a colorimetric assay with a syringaldazine substrate to identify any residual laccase enzyme activity.

[5] = tested on: phosphatase enzyme; experiment: colorimetric assay with a para-nitrophenyl phosphate substrate for residual phosphatase enzyme activity; assay type: biochemical, Psilocybe cubensis; settings: supernatants of the extracts
Excerpt: The denaturation of relevant phosphatase enzymes may be assessed, for example, by performing a colorimetric assay with a para-nitrophenyl phosphate substrate. Para-nitrophenyl phosphate comprises a phosphorylated aromatic, which is chemically similar to the phosphorylated indole of a phosphoryloxytryptamine. Colorimetric assays performed with a para-nitrophenyl phosphate substrate therefore provide suitable methods to assess […] that are relevant to this disclosure.
as §1

[6] = pH of 2.0 relative to pH of 3.0
[7] = pH of 7.0 relative to pH of 6.0
[8] = pH of 3.0 relative to pH of 2.0
[9] = pH of 6.0 relative to pH of 7.0

Molecule: CN(C)CCc1c[nH]c2cccc(O)c12 [psilocin, 3-[2-(dimethylamino)ethyl]-1H-indol-4-ol]
- absorbance detected for the hydroxytryptamine [1, 6]: greater absorbance
- absorbance detected for the hydroxytryptamine [1, 7]: greater absorbance

Molecule: C[N+](C)(C)CCc1c[nH]c2cccc(O)c12 [4-hydroxy-TMT, [2-(4-hydroxy-1H-indol-3-yl)ethyl]-trimethylazanium]
- absorbance detected for the hydroxytryptamine [1, 6]: greater absorbance
- absorbance detected for the hydroxytryptamine [1, 7]: greater absorbance

Molecule: NCCc1c[nH]c2cccc(OP(=O)(O)O)c12 [norbaeocystin, 2-(4-phosphonooxy-1H-indol-3-yl)ethylazanium]
- absorbance detected for the phosphoryloxytryptamine [1, 8]: Greater absorbance
- absorbance detected for the phosphoryloxytryptamine [1, 9]: Greater absorbance

Molecule: Chitin
- solubility in water [2]: insoluble in water

Molecule: CNCCc1c[nH]c2cccc(O)c12 [norpsilocin, 3-[2-(methylamino)ethyl]-1H-indol-4-ol]
- absorbance detected for the hydroxytryptamine [1, 6]: greater absorbance
- absorbance detected for the hydroxytryptamine [1, 7]: greater absorbance

Molecule: CN(C)CCc1c[nH]c2cccc(OP(=O)(O)O)c12 [psilocybin]
- pKa of the azanium of psilocybin ([3]; conjugate acid of the amino): about 10.4
- pKa of the dihydrogen phosphate of psilocybin (lowest pKa) ([3]; first phosphate pKa): about 1.3

Molecule: CCCCCCCCO[C@@H]1O[C@H](CO)[C@@H](O)[C@H](O)[C@H]1O [octyl glucoside, octyl β-D-glucopyranoside]
- laccase enzyme activity relative to the water control [4]: significantly less
- phosphatase enzyme activity relative to the water control [5]: significantly less

Molecule: Cl.N=C(N)N [guanidinium, guanidinium chloride]
- laccase enzyme activity relative to the water control [4]: significantly less
- phosphatase enzyme activity relative to the water control [5]: significantly less

Molecule: polyethylene glycol 4-(2,4,4-trimethylpent-2-yl)phenyl ether [Triton X-100]
- laccase enzyme activity relative to the water control [4]: significantly less
- phosphatase enzyme activity relative to the water control [5]: significantly less

Molecule: C[N+](C)(C)CCc1c[nH]c2cccc(OP(=O)(O)O)c12 [aeruginascin, [2-(4-phosphonooxy-1H-indol-3-yl)ethyl]-trimethylazanium]
- absorbance detected for the phosphoryloxytryptamine [1, 8]: Greater absorbance
- absorbance detected for the phosphoryloxytryptamine [1, 9]: Greater absorbance

Molecule: CNCCc1c[nH]c2cccc(OP(=O)(O)O)c12 [baeocystin, [2-(4-phosphonooxy-1H-indol-3-yl)ethyl]-methylazanium]
- absorbance detected for the phosphoryloxytryptamine [1, 8]: Greater absorbance
- absorbance detected for the phosphoryloxytryptamine [1, 9]: Greater absorbance

Molecule: O=C(O)Cc1c[nH]c2ccccc12 [Indole-3-acetic acid, indole-3-acetic acid]
- solubility in water [2]: insoluble in water

Molecule: NC(N)=O [urea]
- laccase enzyme activity relative to the water control [4]: significantly less
- phosphatase enzyme activity relative to the water control [5]: significantly less

Molecule: NCCc1c[nH]c2cccc(O)c12 [4-HT, 3-(2-aminoethyl)-1H-indol-4-ol]
- absorbance detected for the hydroxytryptamine [1, 6]: greater absorbance
- absorbance detected for the hydroxytryptamine [1, 7]: greater absorbance

Molecule: N.N.O=S(=O)(O)O [ammonium sulfate]
- laccase enzyme activity relative to the water control [4]: significantly less
- phosphatase enzyme activity relative to the water control [5]: significantly less

Molecule: OCCc1c[nH]c2ccccc12 [tryptophol]
- solubility in water [2]: insoluble in water

Molecule: CCCCCCCCCCCCOS(=O)(=O)[O-].[Na+] [sodium dodecyl sulfate]
- laccase enzyme activity relative to the water control [4]: significantly less
- phosphatase enzyme activity relative to the water control [5]: significantly less
